Measurements published in patent US20240180158A1, “COMPOUNDS HAVING SELECTIVE INACTIVATION ACTIVITY” (University of North Carolina at Wilmington, priority 2021, published 2024).
Structures can show the parent of a compound that is named as a salt. Where two headings read alike, the source gives them in different places.

Columns and labels:
S. aureus = test: Disk diffusion assay, S. aureus; format: cell-based
Method: (§1) The following disk diffusion assays were performed with example compounds described above to assess the ability of compounds to inhibit growth of microorganism. A compound that inhibits its target enzyme may perform poorly for a number of reasons, including low solubility in water or slow rate of transport across a microbial membrane.

K pneumoniae = test: Disk diffusion assay, K pneumoniae; format: cell-based
Method: as §1

CalASADH = molecular target: T1, CalASADH (Candida albicans, UniProt Q5ALM0); test: Reversibility of CalASADH inactivation by exogenous thiols; format: biochemical; conditions: incubated 10 min, read-out: residual activity of CalASADH
T1 construct: His tag; made in house
T1 sequence (Q5ALM0 1-365): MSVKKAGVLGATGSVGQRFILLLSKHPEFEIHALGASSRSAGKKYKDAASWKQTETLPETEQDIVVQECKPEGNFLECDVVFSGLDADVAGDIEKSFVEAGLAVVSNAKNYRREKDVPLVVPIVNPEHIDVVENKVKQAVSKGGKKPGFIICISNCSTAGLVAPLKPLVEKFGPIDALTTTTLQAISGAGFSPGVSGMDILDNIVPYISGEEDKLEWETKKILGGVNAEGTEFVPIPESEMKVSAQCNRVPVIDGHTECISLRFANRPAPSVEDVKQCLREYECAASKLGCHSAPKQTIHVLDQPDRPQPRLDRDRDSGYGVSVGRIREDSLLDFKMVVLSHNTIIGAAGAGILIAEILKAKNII
Method: This loss of activity supports the hypothesis that these vinyl sulfones are covalently modifying this enzyme. To determine whether this inactivation can be reversed by the introduction of an exogenous nucleophile a large excess of either cysteine (5 mM) or glutathione (10 mM) was added to the reaction mixture after incubation, and the activity of this inactivated enzyme was then monitored. Samples of CalASADH that had been incubated either with 3 μM 4-(methylvinylsulfonyl)nitrobenzene or with 100 μM 3-(phenylsulfonyl)acrylic acid for 10 min were measured to have from 5 to 10% residual activity. At this point, after either cysteine or glutathione was added to each reaction mixture, the residual enzyme activity was monitored as described above.

[1] = molecular target: T2, Candida albicans ASADH (CalASADH), aspartate semialdehyde dehydrogenase, his-tagged (Candida albicans, UniProt Q5ALM0); test: Inhibition/time-dependent inactivation of Candida albicans ASADH by vinyl sulfones (purified his-tagged enzyme; NADPH production at 340 nm); format: biochemical; conditions: FIG. 5; pH 8.6, 25° C., 0.3 mM ASA, 1.5 mM NADP, 20 mM phosphate; irreversible covalent inactivators
T2 construct: His tag; made in house
T2 sequence (Q5ALM0 1-365): T1 sequence (Q5ALM0 1-365)
Method: FIG. 5 is a table showing the affinities and the rates of inactivation of example vinyl sulfones as inactivators of a fungal ASADH, in accordance with some embodiments of the present technology;
Their initial inhibition potencies (Ki values) were determined by varying the concentration of each vinyl sulfone in the presence of fixed, non-saturating substrate levels.
Aryl vinyl sulfones can be reasonably potent inhibitors of CalASADH, each inhibitor was then tested to determine if it would function as an enzyme inactivator. […] In most cases the residual enzyme activity, measured following a subsequent 20-fold dilution into an assay mixture, decreased to less than 5% of the control rate after incubation with low micromolar levels of these inactivators for 10 min or less. To determine the rate of inactivation the concentration of each vinyl sulfone in this pre-incubation mixture was then varied, centered around their initial measured Ki values. The rate of activity loss observed in each incubation reaction (kobs) was plotted against the inhibitor concentration to determine the inactivation rate (kinact) for that compound and the concentration that produces half-maximal inactivation (Ki). […] The proposed product of the reaction of the active site nucleophile (Cys-156) with this inactivator predicts key interactions of the p-nitro group with Arg-18 and Ser-187, and the protonation of the covalent intermediate by His-256. […] Reaction of this inactivator with the active site nucleophile (Cys-156) predicts keys interactions between its carboxyl group and several backbone amide nitrogens that would shift this adduct further from the active site base (His-256). FIG. 3 illustrates inactivation of Candida albicans ASADH by 4-(methylvinylsulfonyl)nitrobenzene. Plot of the natural log of the ratio of enzyme activity at each time point over the initial enzyme activity, showing the loss of activity as a functional of incubation time for different concentrations of inactivator: 0 μM, 0.75 μM, 1.5 μM, 3 μM, 6 μM. The resulting observed rates at each concentration (kobs) were plotted against the inactivator concentration and a non-linear fit to these replotted data yielded the rate of inactivation (kinact) and the inhibition constant (Ki).
The ASADH from Candida albicans (CalASADH) was purified using an ÄKTA chromatography system as previously described (Arachea et al., 2010), with only minor modifications. A nickel-immobilized metal affinity (IMAC) column was used for the purification of the his-tagged enzyme, with an initial buffer wash containing 20 mM imidazole to remove loosely bound proteins before elution with a 20 to 400 mM imidazole gradient. The enzyme activity was assayed at 25° C. by following the production of NADPH at 340 nm in a SpectraMax 190 plate reader (Molecular Devices). Enzyme inhibitors were evaluated by the same assay in the presence of 120 mM CHES buffer, pH 8.6, with 120 mM KCl, 0.3 mM ASA, 1.5 mM NADP, 20 mM phosphate and varying concentrations of each potential inhibitory compound to be tested. The data were fitted to a competitive inhibitor model which corrects for the levels of substrates present relative to their individual Km values.
To examine the possibility of enzyme inactivation each vinyl sulfone compound was incubated in a defined concentration range with 30 μg/ml of CalASADH, with the inhibitor concentrations grouped around their determined Ki values. Aliquots (10 μl) were removed from the enzyme-inhibitor reaction mixture at various times ranging from 30 secs to 60 min, with most compounds examined from 1 to 10 min at 2 min intervals. Each aliquot was then added to a 190 μl of the same assay mixture as described above for the inhibition studies to measure the residual enzyme activity. […]

[2] = molecular target: Vibrio cholera ASADH (V. cholera ASADH), aspartate semialdehyde dehydrogenase; test: Inactivation of the bacterial ASADH ortholog from Vibrio cholera by vinyl sulfones (comparison with the fungal enzyme); format: biochemical; conditions: FIG. 6, irreversible covalent inactivators
Excerpt: FIG. 6 is a table showing a comparison of the differences in affinities and rates of inactivation of example vinyl sulfones as inactivators of either a bacterial or a fungal ASADH, in accordance with some embodiments of the present technology; and
Enhanced reactivity upon binding to an enzyme target is a desirable property if these vinyl sulfones are to serve as effective antifungal agents. However, increased selectivity in target binding is equally important. […] The ASADH from the […] bacterium Vibrio cholera has >90% overall sequence homology to the C. albicans enzyme, with the exception of a helical domain insert (Arachea et al., 2010), and all of the essential active site functional amino acids are fully conserved between these enzyme forms. Five different vinyl sulfones that span the fungal ASADH potency spectrum were selected and examined as potential inactivators of the bacterial ASADH. […] However, importantly, several of these compounds already show some level of discrimination between the fungal and bacterial ASADHs (Table 3).
Ideally, any antifungal agent should have high specificity, interacting only with its intended target. […] Each of the vinyl sulfones that were examined as inactivators of a fungal ASADH were also found to inactivate the bacterial ASADH ortholog, but several of them do so with lower efficiencies. In particular, the best fungal ASADH inactivators with a polar functional group at the 4-position of the benzyl ring are from 7 to 9-fold less efficient when examined as bacterial ASADH inactivators (See e.g. Table 3). By contrast, the inactivators with this polar group in the 2- or 3-position show no significant differences in reactivity between the fungal and bacterial forms of ASADH. The respective active sites of these two ASADH orthologs are virtually identical. However, a conserved arginine (Arg-18) found in fungal ASADH that is proposed to interact with the 4-nitro or the 4-carboxy groups in these inactivators (FIG. 1) is replaced with either a valine or a threonine in the bacterial ASADH family.
The ASADH from Candida albicans (CalASADH) was purified using an ÄKTA chromatography system as previously described (Arachea et al., 2010), with only minor modifications. […] The enzyme activity was assayed at 25° C. by following the production of NADPH at 340 nm in a SpectraMax 190 plate reader (Molecular Devices). Enzyme inhibitors were evaluated by the same assay in the presence of 120 mM CHES buffer, pH 8.6, with 120 mM KCl, 0.3 mM ASA, 1.5 mM NADP, 20 mM phosphate and varying concentrations of each potential inhibitory compound to be tested. […]

C. auris ASADH = C. auris ASADH (Candidozyma auris, UniProt A0A2H0ZN20); test: C. auris ASADH irreversible inhibition; format: biochemical
Method: These amino acid analogs may be synthesized in accordance with various techniques and schemes provided herein. Two are vinyl sulfones and one is an acrylamide. Accordingly, the core functional group of compounds described herein can be at least one of a vinyl sulfone and/or an acrylamide. The vinyl sulfones were tested against C. auris ASADH as irreversible inhibitors.

C. auris ASADH, sequence (A0A2H0ZN20 entry or part of it): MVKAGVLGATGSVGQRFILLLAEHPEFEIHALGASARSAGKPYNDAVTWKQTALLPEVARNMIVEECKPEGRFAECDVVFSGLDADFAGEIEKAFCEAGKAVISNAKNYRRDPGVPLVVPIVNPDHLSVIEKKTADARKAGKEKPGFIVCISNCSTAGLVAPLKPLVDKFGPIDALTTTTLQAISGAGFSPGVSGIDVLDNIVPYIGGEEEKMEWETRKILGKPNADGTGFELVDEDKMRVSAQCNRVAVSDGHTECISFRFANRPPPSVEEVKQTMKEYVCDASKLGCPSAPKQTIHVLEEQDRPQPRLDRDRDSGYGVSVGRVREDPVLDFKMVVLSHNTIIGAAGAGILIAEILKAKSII

| SMILES | Ki [1] [µM] | also measured |
| --- | --- | --- |
| CS(=O)(=O)/C=C/c1cc(O)ccc1O [2-MSV-dihydroxbenzene, 2-(S-methylsulfonylvinyl)1,4-dihydroxybenzene] |  | disk diffusion, S. aureus (S. aureus; aromatic compounds): medium; disk diffusion, K pneumoniae (K pneumoniae; aromatic compounds): weak |
| O=C(O)/C=C/S(=O)(=O)c1ccccc1 [3-(phenylsulfonyl)acrylic acid] |  | remaining activity at 100 µM (CalASADH; 100 μM): 5 to 10% |
| CS(=O)(=O)/C=C/c1ccc([N+](=O)[O-])cc1 [4-(methylvinylsulfonyl)nitrobenzene, 4-(methylsulfonylvinyl)nitrobenzene] |  | remaining activity at 3 µM (CalASADH; 3 μM): 5 to 10% |
| CS(=O)(=O)/C=C/c1ccc(C(=O)O)cc1 [Compound 1, 4-(methylsulfonylvinyl)benzoic acid] | 0.78 ± 0.1 | Ki [2]: 4.45 ± 0.25 µM |
| CS(=O)(=O)/C=C/c1ccc([N+](=O)[O-])cc1 [Compound 2, 4-(methylsulfonylvinyl)nitrobenzene] | 1.02 ± 0.28 | Ki [2]: 6.29 ± 0.59 µM |
| CS(=O)(=O)/C=C/c1ccccn1 [Compound 3, 2-(methylsulfonylvinyl)pyridine] | 2.64 ± 0.22 |  |
| CS(=O)(=O)/C=C/c1ccc(O)c(O)c1 [Compound 4, 4-(methylsulfonylvinyl)-1,2-benzenediol] | 3.52 ± 0.42 |  |
| O=S(=O)(/C=C/c1ccncc1)c1ccccc1 [Compound 5, 4-(phenylsulfonylvinyl)pyridine] | 2.16 ± 0.24 |  |
| CS(=O)(=O)/C=C/c1ccccc1 [Compound 6, Methylsulfonylvinylbenzene] | 4.26 ± 0.83 |  |
| O=S(=O)(/C=C/c1ccccc1)C(F)(F)F [Compound 7, Trifluoromethylsulfonylvinylbenzene] | 21.7 ± 8 |  |
| O=S(=O)(/C=C/c1ccccn1)c1ccccc1 [Compound 8, 2-(Phenylsulfonylvinyl)pyridine] | 8.49 ± 0.94 |  |
| CS(=O)(=O)/C=C/c1ccncc1 [Compound 9, 4-(methylsulfonylvinyl)pyridine] | 5.69 ± 0.78 |  |
| CS(=O)(=O)/C=C/c1cccnc1 [Compound 10, 3-(methylsulfonylvinyl)pyridine] | 25.1 ± 6.8 |  |
| O=S(=O)(/C=C/c1cccnc1)c1ccccc1 [Compound 11, 3-(Phenylsulfonylvinyl)pyridine] | 42.2 ± 3 |  |
| CS(=O)(=O)/C=C/c1cccc([N+](=O)[O-])c1 [Compound 12, 3-(methylsulfonylvinyl)nitrobenzene] | 19.6 ± 1.4 | Ki [2]: 10.3 ± 2.3 µM |
| CS(=O)(=O)/C=C/c1cccc(C(=O)O)c1 [Compound 13, 3-(methylsulfonylvinyl)benzoic acid] | 36.9 ± 6.2 |  |
| CS(=O)(=O)/C=C/c1ccccc1[N+](=O)[O-] [Compound 14, 2-(methylsulfonylvinyl)nitrobenzene] | 56.7 ± 2.7 | Ki [2]: 2.57 ± 0.23 µM |
| O=C(O)/C=C/S(=O)(=O)c1ccccc1 [Compound 15, 3-(phenylsulfonyl)acrylic acid] | 67.1 ± 15.8 |  |
| CS(=O)(=O)/C=C/C(N)=O [MeSAm, 3-S-Methylsulfonylacrylamide] |  | disk diffusion, S. aureus (S. aureus; vinyl sulfone carboxamides): strong; disk diffusion, K pneumoniae (K pneumoniae; vinyl sulfone carboxamides): strong |
| NC(=O)/C=C/S(=O)(=O)c1ccccc1 [PhSAm, 3-S-Phenylsulfonylacrylamide] |  | disk diffusion, S. aureus (S. aureus; vinyl sulfone carboxamides): strong; disk diffusion, K pneumoniae (K pneumoniae; vinyl sulfone carboxamides): strong |
| NC(C/C=C/S(=O)(=O)Cc1ccccc1)C(=O)O (centres unmarked) [S-benzylsulfonylvinylalanine, 3-(benzylsulfonylvinyl)-alanine hydrochloride] |  | Ki (C. auris ASADH): 0.3 µM |
| CS(=O)(=O)C=CC[C@H](N)C(=O)O [S-methylsulfonylvinylacrylamide, 3-(S-methylsulfonylvinyl)-alanine hydrochloride] |  | Ki (C. auris ASADH; irreversible inhibitors, read-out: inhibitory constant): 0.1 µM |
